According to US8952043B2, “Benzoxepin PI3K inhibitor compounds and methods of use” (Genentech, Inc., priority 2009, dated 2015):

Columns and labels:
p110 alpha PI3K = molecular target: T1, p110 alpha PI3K (Homo sapiens, UniProt P42336); test: p110α (alpha) PI3K binding assay (fluorescence polarization); conditions: read-out: IC50 (inhibition of PI3K alpha, p110 alpha)
T1 construct: purchased Upstate Cell Signaling Solutions, Charlottesville, Va
Method: Determination of the PI3 kinase activity of a Formula I compound is possible by a number of direct and indirect detection methods. Certain exemplary compounds described herein were assayed for their p110α (alpha), and other isoform, PI3K binding activity (Example 601) and in vitro activity against tumor cells (Example 602).
Binding Assays: Initial polarization experiments were performed on an Analyst HT 96-384 (Molecular Devices Corp, Sunnyvale, Calif.). […] After an incubation time of 30 minutes at room temperature, the reactions were stopped by the addition of GRP-1 and PIP3-TAMRA probe (Echelon-Inc., Salt Lake City, Utah.) 100 nM and 5 nM final concentrations respectively. Read with standard cut-off filters for the rhodamine fluorophore (λex=530 nm; λem=590 nm) in 384-well black low volume Proxiplates (PerkinElmer, Wellesley, Mass.) Fluorescence polarization values were plotted as a function of the protein concentration, and the EC50 values were obtained by fitting the data to a 4-parameter equation using KaleidaGraph software (Synergy software, Reading, Pa.). This experiment also establishes the appropriate protein concentration to use in subsequent competition experiments with inhibitors.
Inhibitor IC50 values were determined by addition of the 0.04 mg/mL p110 alpha PI3K (final concentration) combined with PIP2 ([…] final concentration) to wells containing 1:3 serial dilutions of the antagonists in a final concentration of […] ATP (Cell Signaling Technology, Inc., Danvers, Mass.) in the polarization buffer. After an incubation time of 30 minutes at room temperature, the reactions were stopped by the addition of GRP-1 and PIP3-TAMRA probe (Echelon-Inc., Salt Lake City, Utah.) 100 nM and 5 nM final concentrations respectively. Read with standard cut-off filters for the rhodamine fluorophore (λex=530 nm; λem=590 nm) in 384-well black low volume proxi plates (PerkinElmer, Wellesley, Mass.) Fluorescence polarization values were plotted as a function of the antagonist concentration, and the IC50 values were obtained by fitting the data to a 4-parameter equation in Assay Explorer software (MDL, San Ramon, Calif.).
Alternatively, inhibition of PI3K was determined in a radiometric assay using purified, recombinant enzyme and ATP at a concentration of 1 uM. The Formula I compound was serially diluted in 100% DMSO. The kinase reaction was incubated for 1 hr at room temperature, and the reaction was terminated by the addition of PBS. IC50 values were subsequently determined using sigmoidal dose-response curve fit (variable slope).

SKBR3 = test: CellTiter-Glo cell proliferation assay, SKBR3; format: cell-based; conditions: Homo sapiens, SK-BR-3, Breast, mutation status WT
Method: (§1) The in vitro potency of Formula I exemplary compounds was measured by the cell proliferation assay, CellTiter-Glo® Luminescent Cell Viability Assay, commercially available from Promega Corp., Madison, Wis. (Example 602). This homogeneous assay method is based on the recombinant expression of Coleoptera luciferase (U.S. Pat. Nos. 5,583,024; 5,674,713; 5,700,670) and determines the number of viable cells in culture based on quantitation of the ATP present, an indicator of metabolically active cells (Crouch et al (1993) J. Immunol. Meth. 160:81-88; U.S. Pat. No. 6,602,677). […]
(§2) Efficacy of Formula I compounds were measured by a cell proliferation assay employing the following protocol (Promega Corp. Technical Bulletin TB288; Mendoza et al (2002) Cancer Res. 62:5485-5488): […]
(§3) 7. The plate was incubated at room temperature for 10 minutes to stabilize the luminescence signal.
(§4) 8. Luminescence was recorded and reported in graphs as RLU=relative luminescence units.
(§5) Alternatively, cells were seeded at optimal density in a 96 well plate and incubated for 4 days in the presence of test compound. Alamar Blue™ was subsequently added to the assay medium, and cells were incubated for 6 hr before reading at 544 nm excitation, 590 nm emission. EC50 values were calculated using a sigmoidal dose response curve fit. […]

MDA-MB-361.1 = test: CellTiter-Glo cell proliferation assay, MDA-MB-361.1; format: cell-based; conditions: Breast, mutation status PI3K
Method: (§6) The in vitro potency of Formula I exemplary compounds was measured by the cell proliferation assay, CellTiter-Glo® Luminescent Cell Viability Assay, commercially available from Promega Corp., Madison, Wis. (Example 602). This homogeneous assay method is based on the recombinant expression of Coleoptera luciferase (U.S. Pat. Nos. 5,583,024; 5,674,713; 5,700,670) and determines the number of viable cells in culture based on quantitation of the ATP present, an indicator of metabolically active cells (Crouch et al (1993) J. Immunol. Meth. 160:81-88; U.S. Pat. No. 6,602,677). The CellTiter-Glo® Assay was conducted in 96 or 384 well format, making it amenable to automated high-throughput screening (HTS) (Cree et al (1995) AntiCancer Drugs 6:398-404). The homogeneous assay procedure involves adding the single reagent (CellTiter-Glo® Reagent) directly to cells cultured in serum-supplemented medium. Cell washing, removal of medium and multiple pipetting steps are not required. The system detects as few as 15 cells/well in a 384-well format in 10 minutes after adding reagent and mixing.
(§7) Efficacy of Formula I compounds were measured by a cell proliferation assay employing the following protocol (Promega Corp. Technical Bulletin TB288; Mendoza et al (2002) Cancer Res. 62:5485-5488):
(§8) 1. An aliquot of 100 μl of cell culture containing about 10^4 cells (PC3, Detroit562, or MDAMB361.1) in medium was deposited in each well of a 384-well, opaque-walled plate.
(§9) 2. Control wells were prepared containing medium and without cells.
(§10) 3. The compound was added to the experimental wells and incubated for 3-5 days.
(§11) 4. The plates were equilibrated to room temperature for approximately 30 minutes.
(§12) 5. A volume of CellTiter-Glo Reagent equal to the volume of cell culture medium present in each well was added.
(§13) 6. The contents were mixed for 2 minutes on an orbital shaker to induce cell lysis.
as §3, §4
(§14) Alternatively, cells were seeded at optimal density in a 96 well plate and incubated for 4 days in the presence of test compound. Alamar Blue™ was subsequently added to the assay medium, and cells were incubated for 6 hr before reading at 544 nm excitation, 590 nm emission. EC50 values were calculated using a sigmoidal dose response curve fit. […] It is commonly used as a measure of drug potency.
(§15) The anti-proliferative effects of Formula I exemplary compounds were measured by the CellTiter-Glo® Assay against various tumor cell lines, including the following: […]

MFM223 = test: CellTiter-Glo cell proliferation assay, MFM223; format: cell-based; conditions: Homo sapiens, MFM-223, Breast, mutation status PI3K
Method: as §6, §7
1. […]
as §3, §4, §5, §15

HCC1954 = test: CellTiter-Glo cell proliferation assay, HCC1954; format: cell-based; conditions: Homo sapiens, Breast, mutation status PI3K
Method: as §6, §7
1. […]
as §3, §4, §5, §15

T47D = test: CellTiter-Glo cell proliferation assay, T47D; format: cell-based; conditions: Homo sapiens, Breast, mutation status PI3K
Method: as §6, §7
1. […]
as §3, §4, §5, §15

AU565 = test: CellTiter-Glo cell proliferation assay, AU565; format: cell-based; conditions: Homo sapiens, Breast, mutation status WT
Method: as §6, §7, §8, §9, §10, §11, §12, §13, §3, §4, §14, §15

KPL4 = test: CellTiter-Glo cell proliferation assay, KPL4; format: cell-based; conditions: Breast, mutation status PI3K
Method: as §6, §7
1. […]
as §3, §4, §5, §15

H2122 = test: CellTiter-Glo cell proliferation assay, H2122; format: cell-based; conditions: Homo sapiens, NCI-H2122, Lung(NSCLC), mutation status K-RAS
Method: as §6, §7
1. […]
as §3, §4, §5, §15

BT474 = test: CellTiter-Glo cell proliferation assay, BT474; format: cell-based; conditions: Homo sapiens, BT-474, Breast, mutation status PI3K(amped)
Method: as §6, §7
1. […]
as §3, §4, §5, §15

EVSA-T = test: CellTiter-Glo cell proliferation assay, EVSA-T; format: cell-based; conditions: Homo sapiens, Breast, mutation status PTEN
Method: as §6, §7, §8, §9, §10, §11, §12, §13, §3, §4, §14, §15

PC3 = test: CellTiter-Glo cell proliferation assay, PC3; format: cell-based; conditions: Homo sapiens, PC-3, Prostate, mutation status PTEN
Method: as §6, §7
1. […]
as §3, §4, §5, §15

H520 = test: CellTiter-Glo cell proliferation assay, H520; format: cell-based; conditions: Homo sapiens, NCI-H520, Lung(NSCLC), mutation status PTEN
Method: as §1, §2, §3, §4, §5

U87MG = test: CellTiter-Glo cell proliferation assay, U87MG; format: cell-based; conditions: Homo sapiens, U-87 MG, Glioma, mutation status PTEN
Method: as §1, §2, §3, §4, §5

KM12 = test: CellTiter-Glo cell proliferation assay, KM12; format: cell-based; conditions: Homo sapiens, Colon, mutation status PTEN
Method: as §1, §2, §3, §4, §5

MDST8 = test: CellTiter-Glo cell proliferation assay, MDST8; format: cell-based; conditions: Colon, mutation status PTEN
Method: as §1, §2, §3, §4, §5

T1 sequence (P42336 whole entry): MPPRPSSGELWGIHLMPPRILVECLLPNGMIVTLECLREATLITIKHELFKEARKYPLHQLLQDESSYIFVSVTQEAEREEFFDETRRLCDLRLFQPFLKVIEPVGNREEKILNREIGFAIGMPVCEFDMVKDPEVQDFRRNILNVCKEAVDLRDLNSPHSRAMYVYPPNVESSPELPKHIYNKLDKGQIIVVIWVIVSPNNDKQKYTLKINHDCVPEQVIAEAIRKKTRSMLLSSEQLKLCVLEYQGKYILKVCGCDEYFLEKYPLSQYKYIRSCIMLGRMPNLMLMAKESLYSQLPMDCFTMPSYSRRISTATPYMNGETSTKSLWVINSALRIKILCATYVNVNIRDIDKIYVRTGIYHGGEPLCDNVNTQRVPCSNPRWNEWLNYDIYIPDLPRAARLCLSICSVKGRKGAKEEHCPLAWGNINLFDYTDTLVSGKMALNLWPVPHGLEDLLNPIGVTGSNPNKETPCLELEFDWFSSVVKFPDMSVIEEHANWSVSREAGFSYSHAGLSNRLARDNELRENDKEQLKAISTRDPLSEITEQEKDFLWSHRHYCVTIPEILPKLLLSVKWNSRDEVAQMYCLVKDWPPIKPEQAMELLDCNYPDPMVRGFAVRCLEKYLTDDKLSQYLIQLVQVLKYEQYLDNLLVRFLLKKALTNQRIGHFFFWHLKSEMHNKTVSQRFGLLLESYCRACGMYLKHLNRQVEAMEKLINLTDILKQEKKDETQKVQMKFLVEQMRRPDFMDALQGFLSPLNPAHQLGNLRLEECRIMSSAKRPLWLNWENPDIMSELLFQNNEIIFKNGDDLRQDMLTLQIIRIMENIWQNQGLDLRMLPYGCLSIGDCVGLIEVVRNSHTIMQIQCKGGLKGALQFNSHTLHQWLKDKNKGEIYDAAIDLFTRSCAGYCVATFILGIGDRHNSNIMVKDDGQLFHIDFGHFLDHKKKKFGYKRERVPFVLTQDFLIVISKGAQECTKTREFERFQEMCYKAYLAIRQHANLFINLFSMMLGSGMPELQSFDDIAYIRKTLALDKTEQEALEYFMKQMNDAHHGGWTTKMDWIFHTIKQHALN
T1 sequence (P27986 whole entry partner): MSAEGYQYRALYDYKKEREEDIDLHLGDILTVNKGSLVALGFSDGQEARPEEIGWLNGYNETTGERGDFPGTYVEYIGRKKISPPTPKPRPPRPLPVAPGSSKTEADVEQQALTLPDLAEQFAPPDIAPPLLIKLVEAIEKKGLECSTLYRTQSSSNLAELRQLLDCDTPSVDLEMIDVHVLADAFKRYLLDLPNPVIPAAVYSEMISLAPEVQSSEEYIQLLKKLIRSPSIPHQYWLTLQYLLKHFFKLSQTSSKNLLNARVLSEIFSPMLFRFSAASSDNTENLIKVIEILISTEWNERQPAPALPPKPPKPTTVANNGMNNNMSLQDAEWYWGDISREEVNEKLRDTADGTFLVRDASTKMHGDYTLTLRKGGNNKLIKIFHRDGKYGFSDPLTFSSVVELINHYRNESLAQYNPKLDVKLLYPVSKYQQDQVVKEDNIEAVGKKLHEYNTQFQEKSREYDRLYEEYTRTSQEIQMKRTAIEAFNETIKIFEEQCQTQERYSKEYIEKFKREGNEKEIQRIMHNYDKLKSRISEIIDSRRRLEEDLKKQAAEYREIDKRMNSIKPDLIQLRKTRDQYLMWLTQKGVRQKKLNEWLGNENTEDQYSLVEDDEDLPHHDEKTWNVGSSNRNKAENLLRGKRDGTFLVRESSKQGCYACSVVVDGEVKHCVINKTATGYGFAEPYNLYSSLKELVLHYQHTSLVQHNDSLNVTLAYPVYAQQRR

CC(C)N(CCO)C(=O)c1nc2c(s1)CCOc1cc(-c3cn[nH]c3)ccc1-2 [compound 103, 8-(1H-Pyrazol-4-yl)-4,5-dihydro-6-oxa-3-thia-1-aza-benzo[e]azulene-2-carboxylic acid (2-hydroxy-ethyl)-isopropyl-amide]
IC50 (p110 alpha PI3K): 1.8 nM

Cc1nc(-c2nc3c(s2)CCOc2cc(-c4cn(CCO)cn4)ccc2-3)n(C(C)C)n1 [compound 440, 2-{4-[2-(2-Isopropyl-5-methyl-2H-[1,2,4]triazol-3-yl)-4,5-dihydro-6-oxa-3-thia-1-aza-benzo[e]azulen-8-yl]-imidazol-1-yl}-ethanol]
EC50 (SKBR3): 1730 nM | EC50 (MDA-MB-361.1): 2610 nM | EC50 (MFM223): 4410 nM | EC50 (HCC1954): 1620 nM | EC50 (T47D): 569 nM | EC50 (AU565): 1240 nM | EC50 (KPL4): 338 nM | EC50 (H2122): 10000 nM | EC50 (BT474): 1630 nM | EC50 (EVSA-T): 4930 nM | EC50 (PC3): 3030 nM

CC(C)n1ncnc1-c1nc2c(s1)CCOc1cc(C3CCNCC3)ccc1-2 [compound 375, 2-(2-isopropyl-2H-[1,2,4]triazol-3-yl)-8-piperidin-4-yl-4,5-dihydro-6-oxa-3-thia-1-aza-benzo[e]azulene]
EC50 (MDA-MB-361.1): 1090 nM | EC50 (MFM223): 739 nM | EC50 (HCC1954): 348 nM | EC50 (T47D): 145 nM | EC50 (AU565): 241 nM | EC50 (H520): 226 nM | EC50 (KPL4): 151 nM | EC50 (U87MG): 858 nM | EC50 (KM12): 1750 nM | EC50 (H2122): 1170 nM | EC50 (BT474): 428 nM | EC50 (EVSA-T): 225 nM | EC50 (MDST8): 1740 nM | EC50 (PC3): 145 nM

O=C(NCc1ccc2c(c1)OCCc1sc(-c3ncnn3CC(F)(F)F)nc1-2)c1cn[nH]c1 [compound 106, 1H-Pyrazole-4-carboxylic acid {2-[2-(2,2,2-trifluoro-ethyl)-2H-[1,2,4]triazol-3-yl]-4,5-dihydro-6-oxa-3-thia-1-aza-benzo[e]azulen-8-ylmethyl}-amide]
IC50 (p110 alpha PI3K): 5.7 nM

O=S1(=O)CCN(CCNc2ccc3c(n2)-c2sc(-c4ncnn4-c4ccc(F)cc4F)cc2CCO3)CC1 [compound 109, {2-[2-(2,4-Difluoro-phenyl)-2H-[1,2,4]triazol-3-yl]-4,5-dihydro-6-oxa-1-thia-10-aza-benzo[e]azulen-9-yl}-[2-(1,1-dioxo-1S-thiomorpholin-4-yl)-ethyl]-amine]
IC50 (p110 alpha PI3K): 1.3 nM

CC(C)N(C)C(=O)c1nc2c(s1)CCOc1cc(-c3cn[nH]c3)ccc1-2 [compound 102, 8-(1H-Pyrazol-4-yl)-4,5-dihydro-6-oxa-3-thia-1-aza-benzo[e]azulene-2-carboxylic acid isopropyl-methyl-amide]
IC50 (p110 alpha PI3K): 5.1 nM
